Data as given in article PMC10108742, “Design, synthesis and evaluation of OA-tacrine hybrids as cholinesterase inhibitors with low neurotoxicity and hepatotoxicity against Alzheimer’s disease” (Journal of Enzyme Inhibition and Medicinal Chemistry, 2023).
Read-outs that look alike come from different tables or passages of the source.

How the values were obtained:
HepG2 cells [1] = test: Cell viability in HepG2 cells, CCK-8 assay; settings: 24 h
Method: (§1) Figure 5. Effects of various concentrations of compounds on cell viability in SH-SY5Y cells and HepG2 cells after treatment for 24 h. Cell viability was measured by CCK-8 assay. Data were shown as mean ± SD of three independent experiments.
(§2) HepG2 and SH-SY5Y cells were obtained from the Cell Bank of Shanghai Institute of Biochemistry and Cell Biology, Chinese Academy of Sciences (Shanghai, China). HepG2 and SH-SY5Y cells were cultured in MEM or MEM/F12 supplemented with 10% FBS, 100 units mL^−1 penicillin/streptomycin and maintained in a humidified atmosphere of 5% CO2 at 37 °C. Initially, 8000 cells per well were seeded in 96-well plates for HepG2 or SH-SY5Y cells, then treated with vehicle alone or tested compounds for 24 h. Then 10 μL CCK8 purchased from CELLCOOK was added to each well and further incubated for another 3 h. The absorbance was measured using a microplate reader (450 nm).

HepG2 cells [2] = test: Intracellular ROS production in HepG2 cells, DCFH-DA, flow cytometry; settings: 50 μM, compared with control / tacrine group
Method: The percentage of cells for ROS was stained with DCFH-DA and the stained cells were immediately determined by flow cytometry.
The level of intracellular ROS was measured by using the ROS-sensitive dye, 2′,7′-dichloro-fluorescein diacetate (DCFH-DA), as a probe. In brief, cells were seeded in six-well plates at 2.0 × 10^5 cells/well, treating with different tested compounds for 24 h, and then washed three times and incubated with final concentration of 10 μM DCFH-DA for 30 min at 37 °C in the dark. After incubation, cells were washed three times and harvested in free-serum medium. […] Data were processed by using cell quest software (Becton & Dickinson Company, Franklin Lakes, NJ).

HepG2 cells [3] = test: Apoptosis in HepG2 cells, AnnexinV/PI double staining, flow cytometry; settings: 50 μM, 24 h, control group 4.34%
Method: Figure 6. […] Apoptotic cells detected by flow cytometry after AnnexinV and PI double staining.
Annexin V-FITC and propidium iodide were used to evaluate apoptotic cells by flow cytometry. Cells were treated with different concentrations of tested compounds for 24 h. Then the cells were washed twice with phosphate-buffered saline (PBS) (centrifugation at 2000 rpm, 5 min). The collected cells were then resuspended in 500 μL of binding buffer. After stained with 5 μL AnnexinV-FITC and 5 μL propidium iodide at room temperature for 15 min. Cells were then analysed by BD Accuri C6 flow cytometer with cell quest software (Becton & Dickinson Company, Franklin Lakes, NJ). Cells undergoing apoptosis are both Annexin V positive and PI negative.

SH-SY5Y cells = test: Cell viability in SH-SY5Y cells, CCK-8 assay; settings: 24 h
Method: as §1, §2

hBuChE = target: T1, hBuChE (Homo sapiens, UniProt P06276); test: hBuChE inhibition, Ellman's method; assay type: biochemical; settings: hBuChE from human serum, mean ± SD of three experiments
T1 construct: purchased Sigma Aldrich
Method: hAChE, hBuChE, Acetylcholinesterase Activity Assay Kit and Butyrylcholinesterase Activity Assay Kit were purchased from Sigma Aldrich. […] The capacity of all the target compounds to inhibit hAChE and hBuChE activities were assessed by Ellman’s method. […] Results are expressed as the mean ± SD of at least three different experiments performed in triplicate.
Preparation of 50 mM Tris–HCl buffer solutions: 5 ml Tris solution (1 M, Ph 8.5, Beyotime Biotechnology) was dissolved in distilled water (95 ml) and adjusted with HCl to a pH of 8.0 ± 0.1. Buffer was freshly prepared and stored in the refrigerator. […] All solutions were stored in Eppendorf caps in the refrigerator or freezer, if necessary. […] The final concentrations for the enzymatic assay were yielded by diluting the stock solution with bi-distilled water.
(§3) A mixture of the DTNB solution (160 µL), enzyme solution (50 µL) and compounds solutions (10 µL, 3 different concentrations and once blank water) was prepared and incubated at 37 °C for 10 min. The substrate (30 µL) was added to start the enzymatic reaction. […] All measurements were performed as triplicates.

hAChE = target: T2, hAChE (Homo sapiens, UniProt P22303); test: biochemical
T2 construct: purchased Sigma Aldrich
Method: The capacity of all the target compounds to inhibit hAChE and hBuChE activities were assessed by Ellman’s method. […] Results are expressed as the mean ± SD of at least three different experiments performed in triplicate.
Buffer was freshly prepared and stored in the refrigerator. […] All solutions were stored in Eppendorf caps in the refrigerator or freezer, if necessary. […] The final concentrations for the enzymatic assay were yielded by diluting the stock solution with bi-distilled water.
as §3

[4] = hAChE from human erythrocytes, mean ± SD of three experiments

T1 sequence (P06276 29-602): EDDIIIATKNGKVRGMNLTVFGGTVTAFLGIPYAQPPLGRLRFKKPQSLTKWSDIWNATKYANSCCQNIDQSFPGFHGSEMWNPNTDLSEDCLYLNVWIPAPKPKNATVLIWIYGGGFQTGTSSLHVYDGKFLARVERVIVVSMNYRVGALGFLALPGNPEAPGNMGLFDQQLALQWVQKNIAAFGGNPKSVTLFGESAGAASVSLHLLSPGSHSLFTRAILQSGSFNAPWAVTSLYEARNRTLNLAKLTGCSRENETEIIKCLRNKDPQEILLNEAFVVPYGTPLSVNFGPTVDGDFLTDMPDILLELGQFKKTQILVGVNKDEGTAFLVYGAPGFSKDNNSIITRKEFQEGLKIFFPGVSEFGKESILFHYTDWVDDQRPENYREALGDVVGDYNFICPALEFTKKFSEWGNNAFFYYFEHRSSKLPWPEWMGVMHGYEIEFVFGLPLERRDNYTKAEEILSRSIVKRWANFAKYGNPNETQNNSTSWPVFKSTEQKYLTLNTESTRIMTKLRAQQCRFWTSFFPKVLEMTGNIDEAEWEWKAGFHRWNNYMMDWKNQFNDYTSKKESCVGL
T2 sequence (P22303 32-614): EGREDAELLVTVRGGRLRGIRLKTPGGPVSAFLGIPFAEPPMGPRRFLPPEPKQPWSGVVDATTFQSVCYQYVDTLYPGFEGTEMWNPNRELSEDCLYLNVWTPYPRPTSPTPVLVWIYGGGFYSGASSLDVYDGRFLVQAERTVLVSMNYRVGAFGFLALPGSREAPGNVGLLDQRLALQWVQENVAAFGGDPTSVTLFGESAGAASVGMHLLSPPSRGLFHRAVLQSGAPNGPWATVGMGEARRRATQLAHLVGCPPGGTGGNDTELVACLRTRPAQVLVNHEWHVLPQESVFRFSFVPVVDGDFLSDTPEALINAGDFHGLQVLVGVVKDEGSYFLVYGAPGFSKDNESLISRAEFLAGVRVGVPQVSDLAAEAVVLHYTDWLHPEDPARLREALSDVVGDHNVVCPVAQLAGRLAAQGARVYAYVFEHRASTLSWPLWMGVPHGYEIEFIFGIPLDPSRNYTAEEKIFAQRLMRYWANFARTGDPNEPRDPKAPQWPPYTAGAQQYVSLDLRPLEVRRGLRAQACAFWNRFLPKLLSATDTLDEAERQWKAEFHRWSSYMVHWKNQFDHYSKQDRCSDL

| Compound | IC50 (hBuChE; IC50 hBuChE) | IC50 (hAChE) | SI (selectivity index, hBuChE/hAChE) (hAChE) | IC50 (hBuChE; read-out: IC50 hBuChE) | also measured |
| --- | --- | --- | --- | --- | --- |
| Nc1c2c(nc3ccccc13)CCCC2 [Tacrine] |  |  |  |  | cytotoxicity to HepG2 cells (cell viability) (HepG2 cells [1]; 50–100 μM): cytotoxic; intracellular ROS levels (in words) (HepG2 cells [2]): significant hepatotoxicity; percentage of apoptotic cells (HepG2 cells [3]): 18.90%; cytotoxicity to SH-SY5Y cells (cell viability) (SH-SY5Y cells; 50–100 μM): cytotoxic |
| CC1(C)CC[C@]2(C(=O)NCCCCCCNc3c4c(nc5cc(Cl)ccc35)CCCC4)CC[C@]3(C)C(=CCC4[C@@]5(C)CC[C@H](O)C(C)(C)C5CC[C@]43C)C2C1 (stereo partly drawn) [Compound B4] | > 10 µM | 0.0144 ± 0.00189 µM | >695.89 |  | HepG2 cell viability rate (HepG2 cells [1]; 50 μM): close to that of the control group; intracellular ROS levels (in words) (HepG2 cells [2]): significantly lower than that in the tacrine group; percentage of apoptotic cells (HepG2 cells [3]): 7.69%; effect on SH-SY5Y cell viability (SH-SY5Y cells; 50 μM): little effect |
| CC1(C)CC[C@]2(C(=O)NCCCNc3c4c(nc5c(F)cccc35)CCCC4)CC[C@]3(C)C(=CCC4[C@@]5(C)CC[C@H](O)C(C)(C)C5CC[C@]43C)C2C1 (stereo partly drawn) [Compound G2] | 0.921 ± 0.0587 µM | > 10 µM | <0.09 |  |  |
| CC1(C)CC[C@]2(C(=O)NCCNc3c4c(nc5cc(F)ccc35)CCCC4)CC[C@]3(C)C(=CCC4[C@@]5(C)CC[C@H](O)C(C)(C)C5CC[C@]43C)C2C1 (stereo partly drawn) [Compound F1, N-(2-((6-fluoro-1,2,3,4-tetrahydroacridin-9-yl)amino)ethyl)-olean-12-en-28-amide] |  | > 10 µM |  | > 10 µM |  |
| CC1(C)CC[C@]2(C(=O)NCCNc3c4c(nc5cc(Br)ccc35)CCCC4)CC[C@]3(C)C(=CCC4[C@@]5(C)CC[C@H](O)C(C)(C)C5CC[C@]43C)C2C1 (stereo partly drawn) [Compound D1, N-(2-((6-bromo-1,2,3,4-tetrahydroacridin-9-yl)amino)ethyl)-olean-12-en-28-amide] |  | > 10 µM |  | > 10 µM |  |
| CC1(C)CC[C@]2(C(=O)NCCCNc3c4c(nc5c(Cl)cccc35)CCCC4)CC[C@]3(C)C(=CCC4[C@@]5(C)CC[C@H](O)C(C)(C)C5CC[C@]43C)C2C1 (stereo partly drawn) [Compound C2, N-(3-((5-chloro-1,2,3,4-tetrahydroacridin-9-yl)amino)propyl)-olean-12-en-28-amide] |  | > 10 µM |  | > 10 µM |  |
| CC1(C)CC[C@]2(C(=O)NCCCCCCNc3c4c(nc5c(Br)cccc35)CCCC4)CC[C@]3(C)C(=CCC4[C@@]5(C)CC[C@H](O)C(C)(C)C5CC[C@]43C)C2C1 (stereo partly drawn) [Compound E5, N-(6-((5-bromo-1,2,3,4-tetrahydroacridin-9-yl)amino)hexyl)-olean-12-en-28-amide] |  | > 10 µM |  | > 10 µM |  |
| CC1(C)CC[C@]2(C(=O)NCCCCCNc3c4c(nc5c(F)cccc35)CCCC4)CC[C@]3(C)C(=CCC4[C@@]5(C)CC[C@H](O)C(C)(C)C5CC[C@]43C)C2C1 (stereo partly drawn) [Compound G4, N-(5-((5-fluoro-1,2,3,4-tetrahydroacridin-9-yl)amino)pentyl)-olean-12-en-28-amide] |  | > 10 µM | <0.16 | 1.6 ± 0.0904 µM |  |
| CC1(C)CC[C@]2(C(=O)NCCCNc3c4c(nc5cc(F)ccc35)CCCC4)CC[C@]3(C)C(=CCC4[C@@]5(C)CC[C@H](O)C(C)(C)C5CC[C@]43C)C2C1 (stereo partly drawn) [Compound F2] | > 10 µM | > 10 µM |  |  |  |
| CC1(C)CC[C@]2(C(=O)NCCCCCNc3c4c(nc5ccccc35)CCCC4)CC[C@]3(C)C(=CCC4[C@@]5(C)CC[C@H](O)C(C)(C)C5CC[C@]43C)C2C1 (stereo partly drawn) [Compound A3] |  | 0.775 ± 0.28 µM | 3.59 | 2.78 ± 0.0607 µM |  |
| CC1(C)CC[C@]2(C(=O)NCCCCCCNc3c4c(nc5c(F)cccc35)CCCC4)CC[C@]3(C)C(=CCC4[C@@]5(C)CC[C@H](O)C(C)(C)C5CC[C@]43C)C2C1 (stereo partly drawn) [Compound G5, N-(6-((5-fluoro-1,2,3,4-tetrahydroacridin-9-yl)amino)hexyl)-olean-12-en-28-amide] |  | > 10 µM | <0.38 | 3.81 ± 1.04 µM |  |
| CC1(C)CC[C@]2(C(=O)NCCCNc3c4c(nc5c(Br)cccc35)CCCC4)CC[C@]3(C)C(=CCC4[C@@]5(C)CC[C@H](O)C(C)(C)C5CC[C@]43C)C2C1 (stereo partly drawn) [Compound E2] | > 10 µM |  |  |  | IC50 (hAChE; [4]): > 10 µM |
| CC1(C)CC[C@]2(C(=O)NCCNc3c4c(nc5c(Cl)cccc35)CCCC4)CC[C@]3(C)C(=CCC4[C@@]5(C)CC[C@H](O)C(C)(C)C5CC[C@]43C)C2C1 (stereo partly drawn) [Compound C1, N-(2-((5-chloro-1,2,3,4-tetrahydroacridin-9-yl)amino)ethyl)-olean-12-en-28-amide] |  | > 10 µM |  | > 10 µM |  |
| CC1(C)CC[C@]2(C(=O)NCCCCNc3c4c(nc5cc(F)ccc35)CCCC4)CC[C@]3(C)C(=CCC4[C@@]5(C)CC[C@H](O)C(C)(C)C5CC[C@]43C)C2C1 (stereo partly drawn) [Compound F3, N-(4-((6-fluoro-1,2,3,4-tetrahydroacridin-9-yl)amino)butyl)-olean-12-en-28-amide] | > 10 µM |  |  |  | IC50 (hAChE; [4]): > 10 µM |
